Measurements published in patent publication US20200289474A1, “METHODS OF TREATING PAIN WITH A THIAZOLINE ANTI-HYPERALGESIC” (priority 2019, published 2020).
Where “and” joins values, the source holds several entries; their conditions need not be identical. Equal values may be shown once. Entries after “also recorded” stand apart in the source; their conditions may differ. Read-outs that look alike come from different tables or passages of the source.

Legend:
[1] = tested on: PN-mediated cytotoxicity; experiment: cell-based assays of PN-mediated cytotoxicity
[2] = tested on: incision-induced hyperalgesia; experiment: Brennan incisional model, prophylactic paradigm; assay type: in vivo, rat
From the text: Two incisional pain models were used to assess Compound 1 effects on hyperalgesia. The first model is referred to as the Brennan model in which, under anesthesia, a 1 cm longitudinal incision to the skin and underlying fascia of a rat hindpaw is made. The second is a variation but is a more invasive procedure in which the skin and muscle are spread apart using forceps which creates a longer-lasting hypersensitivity.
Using the Brennan protocol and a prophylactic paradigm, Compound 1 (3 doses given PO) or vehicle was administered 15 min prior to incision. At the 24-, 48-, and 72-h time points post-incision, mechanical thresholds were obtained (manual von Frey filament, using up/down method).
In a subsequent experiment, the same paradigm was used with Compound 1 administered at a dose of 30 mg/kg PO along with positive control group consisting of celecoxib (30 mg/kg PO), morphine (10 mg/kg SC), and vehicle.

[3] = tested on: STZ-induced mechanical allodynia; experiment: streptozotocin (STZ)-induced diabetic rats, first experiment; assay type: in vivo, rat
Description: FIG. 14 illustrates non-limiting reversal of mechanical hypersensitivity by Compound 1 in a diabetic neuropathy model, in accordance with various embodiments. Streptozotocin (STZ) destroys insulin-producing cells and generates a diabetic phenotype in […]. Animals were dosed with STZ on day −7. By day 0 animals are hyperglycemic and hyperalgesic (day 0 BL).
Experiments were conducted to determine the effect of Compound 1 in streptozotocin (STZ)-induced diabetic rats. In the first experiment, after obtaining mechanical threshold baselines, STZ (50 mg/kg IV) was administered (Day −7). Two days later, blood glucose levels were measured and animals that were hyperglycemic (>250 mg/dL) continued in the study. On Day 0 the baseline for mechanical thresholds prior to dosing with test articles was established for the rats. Compound 1 (10, 30, and 100 mg/kg PO), gabapentin (100 mg/kg PO) or vehicle was then administered daily for 5 days. On Day 0 mechanical thresholds were obtained at 1, 3, and 6 h post-dose. On Day 1 mechanical thresholds were measured immediately prior to dosing and then 3 h post-dose. The same regimen was followed on Day 3.

[4] = rat 7 day repeat IV dose study; assay type: in vivo; details: 7 day IV
Description: In a third study, SD rats (3/sex/group) were administered Compound 1 IV via the tail vein for 7 days at doses of 0, 75 or 150 mg/kg/day. The vehicle was 15% dimethylacetamide, 85% phosphate buffered saline. Blood was collected from all surviving animals for toxicokinetic analysis approximately 2 hours after the last dose on Day 7.

[5] = beagle dog single dose study IV 10 mg/kg, oral 10 and 100 mg/kg; assay type: in vivo; details: fasted beagle dogs
Description: In another study Compound 1 was administered IV as a single dose to fasted beagle dogs at 10 mg/kg and orally at 10 and 100 mg/kg. Compound 1 was rapidly and well absorbed orally, within 1 hr, reaching peak plasma concentrations of 15 and 108 μg/mL at 10 and 100 mg/kg doses, respectively. The compound distributed readily in tissues with a moderate steady-state volume of distribution (0.3 L/kg).

[6] = rat single dose excretion/metabolite study (urine and feces); assay type: in vivo
From the text: Further metabolism work in additional species will be undertaken.

[7] = target: T1, OATP1B3 (Homo sapiens, UniProt Q9NPD5); experiment: transporter inhibition, HEK293 cells, probe accumulation; assay type: in vitro ADME
T1 construct: expressed in transfected cells; host or cells: HEK293 cells
T1 sequence (Q9NPD5 1-702): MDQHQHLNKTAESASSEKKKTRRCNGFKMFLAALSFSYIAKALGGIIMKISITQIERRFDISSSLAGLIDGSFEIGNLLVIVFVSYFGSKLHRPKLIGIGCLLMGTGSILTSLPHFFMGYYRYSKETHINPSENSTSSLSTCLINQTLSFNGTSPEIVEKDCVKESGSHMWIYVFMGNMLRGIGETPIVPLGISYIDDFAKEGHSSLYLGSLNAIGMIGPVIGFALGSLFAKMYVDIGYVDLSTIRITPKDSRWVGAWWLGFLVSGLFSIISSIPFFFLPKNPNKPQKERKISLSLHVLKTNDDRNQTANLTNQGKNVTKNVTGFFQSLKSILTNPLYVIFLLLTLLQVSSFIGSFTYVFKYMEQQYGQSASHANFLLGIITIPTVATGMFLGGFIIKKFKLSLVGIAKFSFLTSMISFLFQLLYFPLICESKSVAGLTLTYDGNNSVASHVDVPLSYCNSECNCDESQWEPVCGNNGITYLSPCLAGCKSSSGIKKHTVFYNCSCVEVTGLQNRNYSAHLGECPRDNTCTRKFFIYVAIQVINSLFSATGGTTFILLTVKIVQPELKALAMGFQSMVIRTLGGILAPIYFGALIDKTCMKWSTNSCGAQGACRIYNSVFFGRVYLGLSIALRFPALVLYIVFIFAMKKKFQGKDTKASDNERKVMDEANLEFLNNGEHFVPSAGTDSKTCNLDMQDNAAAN

[8] = rat 7-day repeat dose PO study (toxicokinetics)

CC1(C)SC(Nc2ccccc2O)=N[C@@H]1C(=O)O.Cl [Compound 1, (R)-2-(2-hydroxyphenylamino)-5,5-dimethyl-4,5-dihydrothiazole-4-carboxylic acid mono-hydrochloride]
effect in PN-mediated cytotoxicity [1]: protective
hyperalgesia, effect relative to vehicle ([2]; 10 mg/kg PO single dose 15 min prior to incision, mono-hydrochloride): statistically significant reversal of hyperalgesia; also recorded: statistically significant effect
hyperalgesia, effect relative to vehicle ([2]; 30 mg/kg PO single dose): full efficacy
hyperalgesia, mechanical thresholds (von Frey) relative to vehicle ([2]; 3 doses PO, 15 min prior to incision, 24, 48, 72 h post-incision): reversal of hyperalgesia in a dose-dependent manner
reversal of allodynia (mechanical thresholds) ([3]; 10, 30, 100 mg/kg PO daily, subsequent days): statistically-significant
reversal of allodynia (mechanical thresholds) ([3]; 10, 30, 100 mg/kg PO, Day 0): non-significant reversal of allodynia
efficacy compared with gabapentin ([3]; repeated dosing, gabapentin 100 mg/kg PO, mono-hydrochloride): comparable to gabapentin
effect on allodynia, STZ diabetic neuropathy model (summary) ([3]; streptozotocin-induced, mono-hydrochloride): alleviates allodynia; also recorded: blocks STZ-induced mechanical allodynia
Conc in rat plasma ([4]; 75 mg/kg, F, 2 h after last dose Day 7, individual animals, mono-hydrochloride, 75 mg/kg): 2670 ng/mL and 3250 ng/mL and 3180 ng/mL
concentration at 2 h ([4]; 75 mg/kg, F, 2 h after last dose Day 7, individual animals, mono-hydrochloride, 75 mg/kg, read-out: Conc in rat plasma): 12.20 µM and 11.94 µM
Conc in rat plasma ([4]; 75 mg/kg, M, 2 h after last dose Day 7, individual animals, mono-hydrochloride, 75 mg/kg): 2350 ng/mL and 2380 ng/mL and 4310 ng/mL
concentration at 2 h ([4]; 75 mg/kg, M, 2 h after last dose Day 7, individual animals, mono-hydrochloride, 75 mg/kg, read-out: Conc in rat plasma): 8.94 µM and 16.18 µM
Conc in rat plasma ([4]; 150 mg/kg, F, 2 h after last dose Day 7, individual animals, mono-hydrochloride, 150 mg/kg): 5990 ng/mL and 2430 ng/mL and 5530 ng/mL
concentration at 2 h ([4]; 150 mg/kg, F, 2 h after last dose Day 7, individual animals, mono-hydrochloride, 150 mg/kg, read-out: Conc in rat plasma): 22.49 µM and 9.12 µM and 20.76 µM
Conc in rat plasma ([4]; 150 mg/kg, M, 2 h after last dose Day 7, individual animals, mono-hydrochloride, 150 mg/kg): 4280 ng/mL and 6910 ng/mL and 6560 ng/mL
concentration at 2 h ([4]; 150 mg/kg, M, 2 h after last dose Day 7, individual animals, mono-hydrochloride, 150 mg/kg, read-out: Conc in rat plasma): 25.95 µM and 24.63 µM
concentration at 2 h ([4]; female, Sprague-Dawley (SD), rat, plasma, iv, 75 mg/kg, 75 mg/kg, F, 2 h after last dose Day 7, individual animals, read-out: Conc in rat plasma): 2670 ng/mL and 10 µM
concentration at 2 h ([4]; female, Sprague-Dawley (SD), rat, plasma, iv, 75 mg/kg, 75 mg/kg, F, 2 h after last dose Day 7, read-out: Mean Conc in rat plasma): 3030 ng/mL
concentration at 2 h ([4]; female, Sprague-Dawley (SD), rat, plasma, iv, 150 mg/kg, 150 mg/kg, F, 2 h after last dose Day 7, read-out: Mean Conc in rat plasma): 4650 ng/mL
concentration at 2 h ([4]; male, Sprague-Dawley (SD), rat, plasma, iv, 75 mg/kg, 75 mg/kg, M, 2 h after last dose Day 7, individual animals, read-out: Conc in rat plasma): 2350 ng/mL and 8.82 µM
concentration at 2 h ([4]; male, Sprague-Dawley (SD), rat, plasma, iv, 75 mg/kg, 75 mg/kg, M, 2 h after last dose Day 7, read-out: Mean Conc in rat plasma): 3010 ng/mL
concentration at 2 h ([4]; male, Sprague-Dawley (SD), rat, plasma, iv, 150 mg/kg, 150 mg/kg, M, 2 h after last dose Day 7, individual animals, read-out: Conc in rat plasma): 4280 ng/mL and 16.1 µM
concentration at 2 h ([4]; male, Sprague-Dawley (SD), rat, plasma, iv, 150 mg/kg, 150 mg/kg, M, 2 h after last dose Day 7, read-out: Mean Conc in rat plasma): 5920 ng/mL
mean terminal half-life [5]: 3.9 h
steady-state volume of distribution [5]: 0.3 L/kg
oral bioavailability ([5]; both 10 and 100 mg/kg): 75%
peak plasma concentration ([5]; oral 10 mg/kg): 15 µg/mL
peak plasma concentration ([5]; oral 100 mg/kg): 108 µg/mL
time to peak plasma concentration ([5]; oral 10 and 100 mg/kg): ≤ 1 h
administered compound recovered unchanged ([6]; rat single dose, urine and feces): 5-15%
form excreted in urine and feces ([6]; rats): primarily as a sulfate conjugate
inhibition [7]: does not inhibit
MTD ([8]; female rats, oral gavage, 7 days): 2000 mg/kg
Cmax ([8]; rat 7 Day PO, 2000 mg/kg, Seventh Daily Dose, mean): 119000 ng/mL
